Experimental data reported in US9512120B2, “Microbicidally active imidazopyridine derivatives” (Syngenta Participations AG, priority 2013, dated 2016).

Legend:
[1] = test system: Puccinia recondita f. sp. Tritici; assay: Puccinia recondita f. sp. tritici / wheat / leaf disc preventative (brown rust); format: in vivo; settings: foliar, wheat leaf segments cv Kanzler, inoculated 1 day after application, assessed 7-9 days after application, read-out: control of Puccinia recondita f. sp. Tritici (percent disease control compared to untreated)
Method in brief: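 Leaf segments of wheat cv Kanzler on agar were sprayed with formulated compound at 200 ppm and inoculated with spores 1 day later. Incubation was at 19° C, 75% relative humidity and 12/12 h light/dark. Activity was scored 7-9 days after application as percent disease control versus untreated.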

[2] = test system: Phaeosphaeria nodorum (Septoria nodorum); assay: Phaeosphaeria nodorum (Septoria nodorum) / wheat / leaf disc preventative (glume blotch); format: in vivo; settings: Parastagonospora nodorum, foliar, wheat leaf segments cv Kanzler, inoculated 2 days after application, assessed 5-7 days after application, read-out: control of Phaeosphaeria nodorum (percent disease control compared to untreated)
Method in brief: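 Wheat leaf segments (cv Kanzler) on agar sprayed with compound at 200 ppm, inoculated with spores 2 days later. Incubated at 20° C., 75% relative humidity, 12/12 h light/dark; percent disease control versus untreated scored 5-7 days after application.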

[3] = test system: Pyrenophora teres; assay: Pyrenophora teres / barley / leaf disc preventative (net blotch); format: in vivo; settings: foliar, barley leaf segments cv Hasso, inoculated two days after application, assessed 5-7 days after application, read-out: control of Pyrenophora teres (disease control compared to untreated)
Method in brief: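 Barley cv Hasso leaf segments on agar sprayed with compound at 200 ppm, inoculated with spores two days later. Kept at 20 °C, 65% RH, 12/12 h light; disease control versus untreated scored 5-7 days after application.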

[4] = test system: Botryotinia fuckeliana (Botrytis cinerea); assay: Botryotinia fuckeliana (Botrytis cinerea) / liquid culture (gray mould); format: cell-based; settings: Vogels broth, 24° C., 3-4 days after application, read-out: control of Botryotinia fuckeliana (inhibition of growth, photometric)
Method in brief: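 Botrytis cinerea conidia in Vogels broth were added to test compound applied from DMSO at 200 ppm. Incubation at 24 °C; growth inhibition read photometrically 3-4 days after application.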

[5] = test system: Glomerella lagenarium (Colletotrichum lagenarium); assay: Glomerella lagenarium (Colletotrichum lagenarium) / liquid culture (anthracnose); format: cell-based; settings: Colletotrichum orbiculare, PDB, 24° C., 3-4 days after application, read-out: control of Glomerella lagenarium (inhibition of growth, photometric)
Method in brief: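 Cryopreserved conidia suspended in potato dextrose broth were added to compound in DMSO applied at 200 ppm. Plates incubated at 24° C; growth inhibition read photometrically 3-4 days after application.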

[6] = test system: Mycosphaerella arachidis (Cercospora arachidicola); assay: Mycosphaerella arachidis (Cercospora arachidicola) / liquid culture (early leaf spot); format: cell-based; settings: PDB, 24° C., 4-5 days after application, read-out: control of Mycosphaerella arachidis (inhibition of growth, photometric)
Method in brief: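 Conidia suspended in potato dextrose broth and added to test compound from DMSO solution at 200 ppm. Incubated at 24 °C; growth inhibition read photometrically 4-5 days after application.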

[7] = test system: Mycosphaerella graminicola (Septoria tritici); assay: Mycosphaerella graminicola (Septoria tritici) / liquid culture (Septoria blotch); format: cell-based; settings: Zymoseptoria tritici, PDB, 24° C., 4-5 days after application, read-out: control of Mycosphaerella graminicola (inhibition of growth, photometric)
Method in brief: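 Cryo-stored conidia in potato dextrose broth were added to compound in DMSO at 200 ppm in microtiter plates. Plates were incubated at 24 °C and growth inhibition was measured photometrically 4–5 days after application.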

[8] = test system: Gaeumannomyces graminis; assay: Gaeumannomyces graminis / liquid culture (take-all of cereals); format: cell-based; settings: PDB, 24° C., 4-5 days after application, read-out: control of Gaeumannomyces graminis (inhibition of growth, photometric)
Method in brief: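 Mycelial fragments in potato dextrose broth were exposed to compound from DMSO at 200 ppm in microtiter plates. Incubation at 24 °C; growth inhibition read photometrically 4-5 days after application.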

[9] = test system: Thanatephorus cucumeris (Rhizoctonia solani); assay: Thanatephorus cucumeris (Rhizoctonia solani) / liquid culture (foot rot, damping-off); format: cell-based; settings: PDB, 24° C., 3-4 days after application, read-out: control of Thanatephorus cucumeris (inhibition of growth, photometric)
Method in brief: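 Mycelial fragments in potato dextrose broth exposed to test compounds at 200 ppm (from DMSO solution), incubated at 24° C. Growth inhibition read photometrically 3-4 days after application.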

[10] = test system: Monographella nivalis (Microdochium nivale); assay: Monographella nivalis (Microdochium nivale) / liquid culture (foot rot cereals); format: cell-based; settings: PDB, 24° C., 4-5 days after application, read-out: control of Monographella nivalis (inhibition of growth, photometric)
Method in brief: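 Cryostored conidia in potato dextrose broth were added to test compound dispensed from DMSO at 200 ppm. Plates were kept at 24° C, and growth inhibition was read photometrically 4-5 days after application.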

[11] = test system: Fusarium culmorum; assay: microbe, parasite or virus in culture; format: cell-based; settings: read-out: control of Fusarium culmorum (inhibition of growth, photometric)
[12] = test system: Sclerotinia sclerotiorum; assay: Sclerotinia sclerotiorum liquid culture (cottony rot / white mold); format: cell-based; settings: PDB, 24° C., 3-4 days after application, read-out: control of Sclerotinia sclerotiorum (inhibition of growth, photometric)
Method in brief: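 Mycelia fragments of Sclerotinia sclerotiorum in potato dextrose broth were added to compound in DMSO. Cultures incubated at 24° C; growth inhibition determined photometrically 3-4 days after application.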

[13] = test system: Plasmopara viticola; assay: Plasmopara viticola / grape / leaf disc preventative; format: in vivo; settings: foliar, grape vine leaf disks, inoculated 1 day after application, assessed 6-8 days after application, read-out: control of Plasmopara viticola (percent disease control compared to untreated)
[14] = test system: Pythium ultimum; assay: Pythium ultimum / liquid culture (seedling damping off); format: cell-based; settings: Globisporangium ultimum, potato dextrose broth, 24° C., 2-3 days after application, read-out: control of Pythium ultimum (inhibition of growth, photometric)
Procedure: Pythium ultimum/Liquid Culture (Seedling Damping Off) Mycelia fragments and oospores of a newly grown liquid culture of the fungus were directly mixed into nutrient broth (potato dextrose broth). After placing a DMSO solution of test compound into a 96-well format microtiter plate at an application rate of 200 ppm, the nutrient broth containing the fungal mycelia/spore mixture was added. The test plates were incubated at 24° C. and the inhibition of growth was determined photometrically 2-3 days after application.

SMILES | pest or weed control at 200 ppm [1] | pest or weed control at 200 ppm [2] | pest or weed control at 200 ppm [3] | inhibition at 20 ppm [4] | inhibition at 20 ppm [5] | inhibition at 20 ppm [6] | inhibition at 20 ppm [7] | inhibition at 20 ppm [8] | inhibition at 20 ppm [9] | inhibition at 20 ppm [10] | inhibition at 20 ppm [11] | inhibition at 20 ppm [12] | melting point | pest or weed control at 200 ppm [13] | inhibition at 20 ppm [14]
CCn1c(-n2ncnc2N)nc2cncc(C#CC3CC3)c21 [Compound 123, 2-[7-(2-cyclopropylethynyl)-1-ethylimidazo[4,5-c]pyridin-2-yl]-1,2,4-triazol-3-amine] | ≥ 80% | ≥ 80% | ≥ 80% | ≥ 80% | ≥ 80% | ≥ 80% | ≥ 80% | ≥ 80% | ≥ 80% | ≥ 80% | ≥ 80% | ≥ 80% | 188 to 192 °C | – | –
C/C=C/CO/N=C(/C)c1cncc2nc(-n3ncnc3N)n(CC)c12 [Compound 176] | – | ≥ 80% | ≥ 80% | ≥ 80% | – | ≥ 80% | ≥ 80% | ≥ 80% | ≥ 80% | ≥ 80% | ≥ 80% | ≥ 80% | – | ≥ 80% | ≥ 80%
CCCn1c(-n2ncnc2N)nc2cncc(/C(C)=N\OC/C=C\Cl)c21 [Compound 180] | ≥ 80% | – | ≥ 80% | ≥ 80% | – | ≥ 80% | ≥ 80% | ≥ 80% | ≥ 80% | ≥ 80% | ≥ 80% | ≥ 80% | – | ≥ 80% | ≥ 80%
CCn1c(-n2ncnc2N)nc2cncc(Br)c21 [Compound 15, 2-(7-bromo-1-ethylimidazo[4,5-c]pyridin-2-yl)-1,2,4-triazol-3-amine] | ≥ 80% | ≥ 80% | ≥ 80% | ≥ 80% | ≥ 80% | ≥ 80% | ≥ 80% | ≥ 80% | ≥ 80% | ≥ 80% | ≥ 80% | ≥ 80% | 231 to 232 °C | – | –
CCn1c(-n2ncnc2N)nc2cncc(-c3ccc(F)cc3Cl)c21 [Compound 101, 2-[7-(2-chloro-4-fluorophenyl)-1-ethylimidazo[4,5-c]pyridin-2-yl]-1,2,4-triazol-3-amine] | ≥ 80% | ≥ 80% | ≥ 80% | ≥ 80% | ≥ 80% | ≥ 80% | ≥ 80% | ≥ 80% | ≥ 80% | ≥ 80% | ≥ 80% | ≥ 80% | – | – | ≥ 80%
CCCn1c(-n2ncnc2N)nc2cncc(/C(C)=N\OC/C=C(\C)Cl)c21 [Compound 184] | ≥ 80% | ≥ 80% | ≥ 80% | ≥ 80% | – | ≥ 80% | ≥ 80% | ≥ 80% | ≥ 80% | ≥ 80% | ≥ 80% | ≥ 80% | – | ≥ 80% | –
CCn1c(-n2ncnc2N)nc2cncc(-c3ccc(OC)cc3F)c21 [Compound 96, 2-[1-ethyl-7-(2-fluoro-4-methoxyphenyl)imidazo[4,5-c]pyridin-2-yl]-1,2,4-triazol-3-amine] | ≥ 80% | ≥ 80% | ≥ 80% | ≥ 80% | ≥ 80% | – | ≥ 80% | ≥ 80% | ≥ 80% | ≥ 80% | ≥ 80% | ≥ 80% | – | – | ≥ 80%
C=C(C)CO/N=C(/C)c1cncc2nc(-n3ncnc3N)n(CC)c12 [Compound 178] | ≥ 80% | – | ≥ 80% | ≥ 80% | – | ≥ 80% | ≥ 80% | ≥ 80% | ≥ 80% | ≥ 80% | ≥ 80% | ≥ 80% | – | ≥ 80% | –
C=C(OCC)c1cncc2nc(-n3ncnc3N)n(CC)c12 [Compound 74, 2-[7-(1-ethoxyethenyl)-1-ethylimidazo[4,5-c]pyridin-2-yl]-1,2,4-triazol-3-amine] | ≥ 80% | ≥ 80% | ≥ 80% | ≥ 80% | ≥ 80% | ≥ 80% | ≥ 80% | ≥ 80% | ≥ 80% | ≥ 80% | ≥ 80% | ≥ 80% | 193 to 195 °C | – | –
CCCn1c(-n2ncnc2N)nc2cncc(/C(C)=N\OC/C=C/Cl)c21 [Compound 182] | ≥ 80% | ≥ 80% | ≥ 80% | ≥ 80% | – | ≥ 80% | ≥ 80% | – | ≥ 80% | ≥ 80% | ≥ 80% | ≥ 80% | – | ≥ 80% | –
CCCCCCO/N=C(/C)c1cncc2nc(-n3ncnc3N)n(CC)c12 [Compound 147] | ≥ 80% | ≥ 80% | ≥ 80% | ≥ 80% | ≥ 80% | ≥ 80% | ≥ 80% | – | ≥ 80% | ≥ 80% | ≥ 80% | ≥ 80% | – | – | –
C=Cc1cncc2nc(-n3ncnc3N)n(CC)c12 [Compound 106, 2-(7-ethenyl-1-ethylimidazo[4,5-c]pyridin-2-yl)-1,2,4-triazol-3-amine] | – | – | ≥ 80% | ≥ 80% | – | ≥ 80% | ≥ 80% | ≥ 80% | ≥ 80% | ≥ 80% | ≥ 80% | ≥ 80% | 178 to 186 °C | – | ≥ 80%
